One test has as its target CB1 (UniProt P21554). As to the kind of experiment: CB1 radioligand binding assay. Also on record: species or system human. The settings on record: read-out: Ki (CB1). On the procedure: The target compounds were evaluated in vitro at the human CB1 receptor, stably expressed into Chinese hamster ovary (CHO) cells by utilizing radioligand binding studies.
The binding constant for the synthesized compounds were determined by using radioligand binding assay in mouse brain membranes as well as the target compounds were evaluated in vitro at the human CB1 receptor, stably expressed into Chinese hamster ovary (CHO) cells as well as mouse brain membrane CB1. […]

For another test, the target named is T1, Brain/CB1 (Mus musculus, UniProt P47746).
T1 construct: from tissue; host or cells: mouse brain membranes
The test is described as follows: Functional GTPγS binding, Brain/CB1. It counts as biochemical. From the text:
Furthermore, the intermediates urea compounds 8a-m were chlorinated with phosphorus oxychloride in the presence of DIPEA base to form imidoyl chloride intermediate and reacted with acetamidine hydrochloride/methyl carbamimidothioate iodide/methyl carbamimidoselenoate iodide and other amines to furnish the target compounds (10a-34b) (Scheme 2, FIG. 2, Scheme 5, FIG. 5). The urea derivatives were converted to the thiourea derivatives 9a-9d by employing sodium thiosulfate. Compound 8a-b, 8e-f were converted to corresponding thiourea by employing sodium thiosulfate dissolved in water dioxane mixture and the reaction was heated to 85° C. for 2 h. […] The binding constant for the synthesized compounds were determined by using radioligand binding assay in mouse brain membranes as well as the target compounds were evaluated in vitro at the human CB1 receptor, stably expressed into Chinese hamster ovary (CHO) cells as well as mouse brain membrane CB1.

From patent publication US20250197359A1, “CANNABINOID RECEPTOR MODULATING COMPOUNDS” (The U.S.A., as Represented by the Secretary, Department of …, priority 2022, published 2025) come the findings set out here.

Each structure is given as a SMILES string.

T1 sequence (P47746 whole entry): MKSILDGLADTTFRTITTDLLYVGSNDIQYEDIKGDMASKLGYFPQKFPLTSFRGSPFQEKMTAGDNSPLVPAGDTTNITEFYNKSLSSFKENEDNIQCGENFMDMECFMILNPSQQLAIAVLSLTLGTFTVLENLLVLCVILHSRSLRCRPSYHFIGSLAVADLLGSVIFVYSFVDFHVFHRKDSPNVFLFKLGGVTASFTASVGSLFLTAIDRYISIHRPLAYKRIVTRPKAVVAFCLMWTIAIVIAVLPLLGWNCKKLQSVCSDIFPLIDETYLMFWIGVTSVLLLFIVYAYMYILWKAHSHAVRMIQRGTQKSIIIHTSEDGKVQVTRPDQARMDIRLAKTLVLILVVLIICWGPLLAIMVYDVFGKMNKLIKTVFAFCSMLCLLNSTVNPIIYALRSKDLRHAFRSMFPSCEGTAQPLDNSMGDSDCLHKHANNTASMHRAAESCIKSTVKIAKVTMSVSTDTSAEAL

Take `COC(=O)CN/C(=N/S(=O)(=O)c1ccc(C(F)(F)F)cc1)N1CCC(c2ccccc2)C(c2ccc(Cl)cc2)=N1` (centres unmarked) [Compound 23, methyl (Z)-((3-(4-chlorophenyl)-4-phenyl-5,6-dihydropyridazin-1 (4H)-yl)(((4-(trifluoromethyl)phenyl)sulfonyl)imino)methyl)glycinate]: the Ki (in general, the equilibrium dissociation constant of an inhibitor or competing ligand from its target) on CB1 is 4.37 nM. Further, the IC50 (commonly the concentration that inhibits the measured activity by half) at Brain/CB1 turned out to be 8.1 nM. On the same counts, the results for `COc1ccc(S(=O)(=O)/N=C(/N=C(\C)N)N2CCC(c3ccccc3)C(c3ccc(Cl)cc3)=N2)cc1` (centres unmarked) [Compound 10h, (Z)—N—((E)-1-aminoethylidene)-3-(4-chlorophenyl)-N′-((4-methoxyphenyl)sulfonyl)-4-phenyl-5,6-dihydropyridazine-1 (4H)-carboximidamide] are 105 nM and 357 nM.

For `CC(C)C(N/C(=N/S(=O)(=O)c1ccccc1)N1CCC(c2ccccc2)C(c2ccc(Cl)cc2)=N1)C(N)=O` (single isomer, unassigned) [Compound 28a, (Z)-2-(3-(4-chlorophenyl)-4-phenyl-N′-(phenylsulfonyl)-1,4,5,6-tetrahydropyridazine-1-carboximidamido)-3-methylbutanamide], the IC50 on Brain/CB1 was more than 1000 nM.

As to `C/C(N)=N\C(=N\S(=O)(=O)c1ccc(F)cc1)N1CCC(c2ccccc2)C(c2ccc(Cl)cc2)=N1` (centres unmarked) [Compound 10j, (Z)—N—((E)-1-aminoethylidene)-3-(4-chlorophenyl)-N′-((4-fluorophenyl)sulfonyl)-4-phenyl-5,6-dihydropyridazine-1 (4H)-carboximidamide], the Ki at CB1 is 59.3 nM. Moreover, the IC50 at Brain/CB1 was 182 nM. For the compound `C/C(N)=N\C(=N\S(=O)(=O)c1cccc(C(F)(F)F)c1)N1CCC(c2ccccc2)C(c2ccc(Cl)cc2)=N1` (centres unmarked) [Compound 10c, (Z)—N—((E)-1-aminoethylidene)-3-(4-chlorophenyl)-4-phenyl-N′-((3-(trifluoromethyl)phenyl)sulfonyl)-5,6-dihydropyridazine-1 (4H)-carboximidamide], the Ki on CB1 was determined as 28.3 nM. The same compound registered an IC50 at Brain/CB1 of 105 nM.

`COc1ccc(S(=O)(=O)/N=C(/NC(C(N)=O)C(C)C)N2CCC(c3ccccc3)C(c3ccc(Cl)cc3)=N2)cc1` (single isomer, unassigned) [Compound 27a, (Z)-2-(3-(4-chlorophenyl)-N′-((4-methoxyphenyl)sulfonyl)-4-phenyl-1,4,5,6-tetrahydropyridazine-1-carboximidamido)-3-methylbutanamide] showed an IC50 at Brain/CB1 of more than 1000 nM. As for `CC(C)C(N/C(=N/S(=O)(=O)c1ccc(Cl)cc1)N1CCC(c2ccccc2)C(c2ccc(Cl)cc2)=N1)C(N)=O` (single isomer, unassigned) [Compound 30b, (Z)-2-(3-(4-chlorophenyl)-N′-((4-chlorophenyl)sulfonyl)-4-phenyl-1,4,5,6-tetrahydropyridazine-1-carboximidamido)-3-methylbutanamide], the Ki at CB1 is 18.2 nM. The half-maximal inhibitory concentration (IC50) at Brain/CB1 worked out at 39 nM. Compound `C/C(N)=N\C(=N\S(=O)(=O)c1ccc(C(F)(F)F)cc1)N1CCC(c2ccccc2)C(c2ccc(Cl)cc2)=N1` (single isomer, unassigned) [Compound 10bE2, (Z)—N—((E)-1-aminoethylidene)-3-(4-chlorophenyl)-4-phenyl-N′-((4-(trifluoromethyl)phenyl)sulfonyl)-5,6-dihydropyridazine-1 (4H)-carboximidamide] had an IC50 on Brain/CB1 of 34 nM. Take `N/C(=N\C(=N\S(=O)(=O)c1ccc(C(F)(F)F)cc1)N1CCC(c2ccccc2)C(c2ccc(Cl)cc2)=N1)c1ccc(F)cc1` (centres unmarked) [Compound 10u, (Z)—N—((Z)-amino (4-fluorophenyl)methylene)-3-(4-chlorophenyl)-4-phenyl-N′-((4-(trifluoromethyl)phenyl)sulfonyl)-5,6-dihydropyridazine-1 (4H)-carboximidamide]: on CB1, the Ki stood at 27.3 nM. On Brain/CB1, the IC50 turned out to be 107 nM. Regarding `CC(N/C(=N/S(=O)(=O)c1ccc(C(F)(F)F)cc1)N1CCC(c2ccccc2)C(c2ccc(Cl)cc2)=N1)C(N)=O` (single isomer, unassigned) [Compound 31a, (Z)-2-(3-(4-chlorophenyl)-4-phenyl-N′-((4-(trifluoromethyl)phenyl)sulfonyl)-1,4,5,6-tetrahydropyridazine-1-carboximidamido) propenamide], the Ki at CB1 came to 96.9 nM. Further, at Brain/CB1, the IC50 worked out at 863 nM. On the same counts, the results for `N/C(=N\C(=N\S(=O)(=O)c1ccc(C(F)(F)F)cc1)N1CCC(c2ccccc2)C(c2ccc(F)cc2)=N1)c1ccccc1F` (centres unmarked) [Compound 10zd, (Z)—N—((Z)-amino (2-fluorophenyl)methylene)-3-(4-fluorophenyl)-4-phenyl-N′-((4-(trifluoromethyl)phenyl)sulfonyl)-5,6-dihydropyridazine-1 (4H)-carboximidamide] are 26 nM and 115 nM. For `N/C(=N\C(=N\S(=O)(=O)c1ccc(C(F)(F)F)cc1)N1CCC(c2ccccc2)C(c2ccc(Br)cc2)=N1)c1ccccc1F` (centres unmarked) [Compound 10z, (Z)—N—((Z)-amino (2-fluorophenyl)methylene)-3-(4-bromophenyl)-4-phenyl-N′-((4-(trifluoromethyl)phenyl)sulfonyl)-5,6-dihydropyridazine-1 (4H)-carboximidamide], the Ki on CB1 was found to be 8.25 nM. This compound also registered an IC50 on Brain/CB1 of 49 nM. For the compound `CC(C)(C)/C(N)=N/C(=N/S(=O)(=O)c1ccc(C(F)(F)F)cc1)N1CCC(c2ccccc2)C(c2ccc(Cl)cc2)=N1` (single isomer, unassigned) [Compound 10oE1, (Z)—N—((Z)-1-amino-2,2-dimethylpropylidene)-3-(4-chlorophenyl)-4-phenyl-N′-((4-(trifluoromethyl)phenyl)sulfonyl)-5,6-dihydropyridazine-1 (4H)-carboximidamide], on CB1, the Ki was determined as 351 nM. The IC50 on Brain/CB1 was determined as 222 nM. In the case of `COc1ccc(S(=O)(=O)/N=C(/NC(C(N)=O)C(C)C)N2CCC(c3ccccc3)C(c3ccc(Cl)cc3)=N2)cc1` (single isomer, unassigned) [Compound 27b, (Z)-2-(3-(4-chlorophenyl)-N′-((4-methoxyphenyl)sulfonyl)-4-phenyl-1,4,5,6-tetrahydropyridazine-1-carboximidamido)-3-methylbutanamide], at Brain/CB1, the IC50 was 51 nM. As for `N/C(=N\C(=N\S(=O)(=O)c1ccc(C(F)(F)F)cc1)N1CCC(c2ccccc2)C(c2ccc(Cl)cc2)=N1)c1ccccc1F` (centres unmarked) [Compound 10t, (Z)—N—((Z)-amino (2-fluorophenyl)methylene)-3-(4-chlorophenyl)-4-phenyl-N′-((4-(trifluoromethyl)phenyl)sulfonyl)-5,6-dihydropyridazine-1 (4H)-carboximidamide], the Ki at CB1 was determined as 7.4 nM. Besides, the IC50 at Brain/CB1 came to 25 nM.

For `N/C(=N\C(=N\S(=O)(=O)c1ccc(C(F)(F)F)cc1)N1CCC(c2ccccc2)C(c2ccc(Cl)cc2)=N1)c1ccccc1F` (single isomer, unassigned) [Compound 10tE2, (Z)—N—((Z)-amino (2-fluorophenyl)methylene)-3-(4-chlorophenyl)-4-phenyl-N′-((4-(trifluoromethyl)phenyl)sulfonyl)-5,6-dihydropyridazine-1 (4H)-carboximidamide], the IC50 on Brain/CB1 is 18 nM. Still for that read-out and setting: the result for `CC(C)C(N/C(=N/S(=O)(=O)c1ccc(C(F)(F)F)cc1)N1CCC(c2ccccc2)C(c2ccc(Br)cc2)=N1)C(N)=O` (single isomer, unassigned) [Compound 26a, (Z)-2-(3-(4-bromophenyl)-4-phenyl-N′-((4-(trifluoromethyl)phenyl)sulfonyl)-1,4,5,6-tetrahydropyridazine-1-carboximidamido)-3-methylbutanamide] reads more than 1000 nM; that for `CC(C)C(N/C(=N/S(=O)(=O)c1ccccc1)N1CCC(c2ccccc2)C(c2ccc(Cl)cc2)=N1)C(N)=O` (single isomer, unassigned) [Compound 28b, (Z)-2-(3-(4-chlorophenyl)-4-phenyl-N′-(phenylsulfonyl)-1,4,5,6-tetrahydropyridazine-1-carboximidamido)-3-methylbutanamide], 336 nM; that for `C/C(N)=N\C(=N\S(=O)(=O)c1ccc(C(F)(F)F)cc1)N1CCC(c2ccccc2)C(c2ccc(Cl)cc2)=N1` (single isomer, unassigned) [Compound 10bE1, (Z)—N—((E)-1-aminoethylidene)-3-(4-chlorophenyl)-4-phenyl-N′-((4-(trifluoromethyl)phenyl)sulfonyl)-5,6-dihydropyridazine-1 (4H)-carboximidamide], more than 1000 nM.

Take `CC(C)C(N/C(=N/S(=O)(=O)c1ccc(C(F)(F)F)cc1)N1CCC(c2ccccc2)C(c2ccc(Br)cc2)=N1)C(N)=O` (single isomer, unassigned) [Compound 26b, (Z)-2-(3-(4-bromophenyl)-4-phenyl-N′-((4-(trifluoromethyl)phenyl)sulfonyl)-1,4,5,6-tetrahydropyridazine-1-carboximidamido)-3-methylbutanamide]: the IC50 on Brain/CB1 stood at 9.5 nM. The same measure, in the same setting: for `N/C(=N\C(=N\S(=O)(=O)c1ccc(C(F)(F)F)cc1)N1CCC(c2ccccc2)C(c2ccc(Cl)cc2)=N1)c1ccccc1F` (single isomer, unassigned) [Compound 10tE1, (Z)—N—((Z)-amino (2-fluorophenyl)methylene)-3-(4-chlorophenyl)-4-phenyl-N′-((4-(trifluoromethyl)phenyl)sulfonyl)-5,6-dihydropyridazine-1 (4H)-carboximidamide] the value was 51 nM.
